Source: patent publication US20040018941A1, “Fused-benzene derivatives of thiouracil, herbicidal and desiccant compositions contaning them” (ISHIHARA SANGYO KAISHA, LTD., priority 2002, published 2004)

Assays:
Assay type in all cases: in vivo
Conditions in all cases: rating 0-100 (0 no damage, 100 complete death), 14 days after application
[1] = tested on: common ragweed (Ambrosia artemisiifolia L., AMBEL); experiment: Pre-emerge herbicidal activity, greenhouse screen, AMBEL
Source text: (§1) A standard greenhouse herbicide activity screening system was used to evaluate the herbicidal efficacy and crop safety of these test compounds. Seven broadleaf weed species including redroot pigweed (Amaranthus retroflexus, AMARE), velvetleaf (Abutilon theophrasti, ABUTH), sicklepod (Cassia obtusifolia, CASOB), ivyleaf morningglory (Ipomoea hederacea, IPOHE), lambsquarters (Chenopodium album, CHEAL), common ragweed (Ambrosia artemisiifolia L., AMBEL), and cocklebur (Xanthium strumarium, XANST) were used as test species. Four grass weed species including green foxtail (Setaria viridis, SETVI), barnyardgrass (Echinochloa crus-galli, ECHCG), johnsongrass (Sorghum halepense, SORHA), and large crabgrass (Digitaria sanguinalis, DIGSA) were also used. In addition, three crop species, field corn (Zea mays L., var. Dekalb 527, CORN), soybean (Glycine max L., var. Pella 86, SOY), and upland rice (Oryza sp., var. Tebonnet, RICE) were included.
(§2) All plants were grown in 10 cm square plastic pots which were filled with a sandy loam soil mix. For pre-emerge tests, seeds were planted one day prior to application of the test compounds. For post-emerge tests, seeds were planted 8-21 days prior to the test to allow emergence and good foliage development prior to application of the test substances. At the time of the post-emerge application, plants of all species were usually at the 2-3 leaf stage of development.
(§3) All test compounds were dissolved in acetone and applied to the test units in a volume of 187 l/ha. Test materials were applied at rates ranging from 15 g ai/ha to 1000 g ai/ha using a track sprayer equipped with a TJ8001 E even flow flat fan spray nozzle. Plants were arranged on a shelf so that the top of the canopy (post-emerge) or top of the soil surface (pre-emerge) was 40-45 cm below the nozzle. Pressurized air was used to force the test solution through the nozzle as it was mechanically advanced over the top of all test plants/pots. This application simulates a typical commercial field herbicide application.
(§4) In the post-emerge test, a commercial non-ionic surfactant was also included (0.25% v/v) to enhance wetting of the leaf surfaces of target plants. Immediately after application, test units of the pre-emerge applications were watered at the soil surface to incorporate the test materials.
(§5) At 14 days after application of the test materials, phytotoxicity ratings were recorded. A rating scale of 0-100 was used as previously described in Research Methods in Weed Science, 2nd edition, B. Truelove, Ed., Southern Weed Science Society, Auburn University, Auburn, Ala., 1977. Briefly, “0” corresponds to no damage and “100” corresponds to complete death of all plants in the test unit. This scale was used both to determine efficacy against weed species and damage to crop species. Herbicide activity data for various compounds of this invention, which are shown by compound No. in Tables 1-7, are shown in Tables 8 and 9.

[2] = tested on: redroot pigweed (Amaranthus retroflexus, AMARE); experiment: Post-emerge herbicidal activity, greenhouse screen, AMARE
Source text: as §1, §2, §3, §4, §5

[3] = tested on: johnsongrass (Sorghum halepense, SORHA); experiment: Pre-emerge herbicidal activity, greenhouse screen, SORHA
Source text: as §1, §2, §3, §4, §5

[4] = tested on: sicklepod (Cassia obtusifolia, CASOB); experiment: Pre-emerge herbicidal activity, greenhouse screen, CASOB
Source text: as §1, §2, §3, §4, §5

[5] = tested on: lambsquarters (Chenopodium album, CHEAL); experiment: Post-emerge herbicidal activity, greenhouse screen, CHEAL
Source text: as §1, §2, §3, §4, §5

[6] = tested on: large crabgrass (Digitaria sanguinalis, DIGSA); experiment: Pre-emerge herbicidal activity, greenhouse screen, DIGSA
Source text: as §1, §2, §3, §4, §5

[7] = tested on: green foxtail (Setaria viridis, SETVI); experiment: Pre-emerge herbicidal activity, greenhouse screen, SETVI
Source text: as §1, §2, §3, §4, §5

[8] = tested on: upland rice (Oryza sp., var. Tebonnet, RICE); experiment: Post-emerge crop damage, greenhouse screen, RICE
Source text: as §1, §2, §3, §4, §5

[9] = tested on: green foxtail (Setaria viridis, SETVI); experiment: Post-emerge herbicidal activity, greenhouse screen, SETVI
Source text: as §1, §2, §3, §4, §5

[10] = tested on: sicklepod (Cassia obtusifolia, CASOB); experiment: Post-emerge herbicidal activity, greenhouse screen, CASOB
Source text: as §1, §2, §3, §4, §5

[11] = tested on: soybean (Glycine max L., var. Pella 86, SOY); experiment: Post-emerge crop damage, greenhouse screen, SOY
Source text: as §1, §2, §3, §4, §5

[12] = tested on: velvetleaf (Abutilon theophrasti, ABUTH); experiment: Post-emerge herbicidal activity, greenhouse screen, ABUTH
Source text: as §1, §2, §3, §4, §5

[13] = tested on: redroot pigweed (Amaranthus retroflexus, AMARE); experiment: Pre-emerge herbicidal activity, greenhouse screen, AMARE
Source text: as §1, §2, §3, §4, §5

[14] = tested on: johnsongrass (Sorghum halepense, SORHA); experiment: Post-emerge herbicidal activity, greenhouse screen, SORHA
Source text: as §1, §2, §3, §4, §5

[15] = tested on: ivyleaf morningglory (Ipomoea hederacea, IPOHE); experiment: Post-emerge herbicidal activity, greenhouse screen, IPOHE
Source text: as §1, §2, §3, §4, §5

[16] = tested on: barnyardgrass (Echinochloa crus-galli, ECHCG); experiment: Post-emerge herbicidal activity, greenhouse screen, ECHCG
Source text: as §1, §2, §3, §4, §5

[17] = tested on: large crabgrass (Digitaria sanguinalis, DIGSA); experiment: Post-emerge herbicidal activity, greenhouse screen, DIGSA
Source text: as §1, §2, §3, §4, §5

[18] = tested on: field corn (Zea mays L., var. Dekalb 527, CORN); experiment: Post-emerge crop damage, greenhouse screen, CORN
Source text: as §1, §2, §3, §4, §5

[19] = tested on: lambsquarters (Chenopodium album, CHEAL); experiment: Pre-emerge herbicidal activity, greenhouse screen, CHEAL
Source text: as §1, §2, §3, §4, §5

[20] = tested on: field corn (Zea mays L., var. Dekalb 527, CORN); experiment: Pre-emerge crop damage, greenhouse screen, CORN
Source text: as §1, §2, §3, §4, §5

[21] = tested on: barnyardgrass (Echinochloa crus-galli, ECHCG); experiment: Pre-emerge herbicidal activity, greenhouse screen, ECHCG
Source text: as §1, §2, §3, §4, §5

[22] = tested on: upland rice (Oryza sp., var. Tebonnet, RICE); experiment: Pre-emerge crop damage, greenhouse screen, RICE
Source text: as §1, §2, §3, §4, §5

[23] = tested on: common ragweed (Ambrosia artemisiifolia L., AMBEL); experiment: Post-emerge herbicidal activity, greenhouse screen, AMBEL
Source text: as §1, §2, §3, §4, §5

[24] = tested on: soybean (Glycine max L., var. Pella 86, SOY); experiment: Pre-emerge crop damage, greenhouse screen, SOY
Source text: as §1, §2, §3, §4, §5

[25] = tested on: ivyleaf morningglory (Ipomoea hederacea, IPOHE); experiment: Pre-emerge herbicidal activity, greenhouse screen, IPOHE
Source text: as §1, §2, §3, §4, §5

[26] = tested on: velvetleaf (Abutilon theophrasti, ABUTH); experiment: Pre-emerge herbicidal activity, greenhouse screen, ABUTH
Source text: as §1, §2, §3, §4, §5

Cc1nc2c(Cl)cc(F)c(-n3c(=O)cc(C(F)(F)F)n(C)c3=S)c2o1 [Compound 1-2]
Pre-emerge Herbicidal Activity AMBEL ([1]; 63 g ai/ha): 100
Pre-emerge Herbicidal Activity AMBEL ([1]; 250 g ai/ha): 100
Post-emerge Herbicidal Activity AMARE ([2]; 63 g ai/ha): 100
Post-emerge Herbicidal Activity AMARE ([2]; 250 g ai/ha): 100
Pre-emerge Herbicidal Activity SORHA ([3]; 63 g ai/ha): 100
Pre-emerge Herbicidal Activity SORHA ([3]; 250 g ai/ha): 100
Pre-emerge Herbicidal Activity CASOB ([4]; 63 g ai/ha): 100
Pre-emerge Herbicidal Activity CASOB ([4]; 250 g ai/ha): 100
Post-emerge Herbicidal Activity CHEAL ([5]; 63 g ai/ha): 100
Post-emerge Herbicidal Activity CHEAL ([5]; 250 g ai/ha): 100
Pre-emerge Herbicidal Activity DIGSA ([6]; 63 g ai/ha): 100
Pre-emerge Herbicidal Activity DIGSA ([6]; 250 g ai/ha): 100
Pre-emerge Herbicidal Activity SETVI ([7]; 63 g ai/ha): 100
Pre-emerge Herbicidal Activity SETVI ([7]; 250 g ai/ha): 100
Post-emerge Herbicidal Activity RICE (crop damage) ([8]; 63 g ai/ha): 75
Post-emerge Herbicidal Activity RICE (crop damage) ([8]; 250 g ai/ha): 80
Post-emerge Herbicidal Activity SETVI ([9]; 63 g ai/ha): 100
Post-emerge Herbicidal Activity SETVI ([9]; 250 g ai/ha): 100
Post-emerge Herbicidal Activity CASOB ([10]; 63 g ai/ha): 100
Post-emerge Herbicidal Activity CASOB ([10]; 250 g ai/ha): 100
Post-emerge Herbicidal Activity SOY (crop damage) ([11]; 63 g ai/ha): 100
Post-emerge Herbicidal Activity SOY (crop damage) ([11]; 250 g ai/ha): 100
Post-emerge Herbicidal Activity ABUTH ([12]; 63 g ai/ha): 100
Post-emerge Herbicidal Activity ABUTH ([12]; 250 g ai/ha): 100
Pre-emerge Herbicidal Activity AMARE ([13]; 63 g ai/ha): 100
Pre-emerge Herbicidal Activity AMARE ([13]; 250 g ai/ha): 100
Post-emerge Herbicidal Activity SORHA ([14]; 63 g ai/ha): 100
Post-emerge Herbicidal Activity SORHA ([14]; 250 g ai/ha): 100
Post-emerge Herbicidal Activity IPOHE ([15]; 63 g ai/ha): 100
Post-emerge Herbicidal Activity IPOHE ([15]; 250 g ai/ha): 100
Post-emerge Herbicidal Activity ECHCG ([16]; 63 g ai/ha): 100
Post-emerge Herbicidal Activity ECHCG ([16]; 250 g ai/ha): 100
Post-emerge Herbicidal Activity DIGSA ([17]; 63 g ai/ha): 99
Post-emerge Herbicidal Activity DIGSA ([17]; 250 g ai/ha): 100
Post-emerge Herbicidal Activity CORN (crop damage) ([18]; 63 g ai/ha): 25
Post-emerge Herbicidal Activity CORN (crop damage) ([18]; 250 g ai/ha): 35
Pre-emerge Herbicidal Activity CHEAL ([19]; 63 g ai/ha): 100
Pre-emerge Herbicidal Activity CHEAL ([19]; 250 g ai/ha): 100
Pre-emerge Herbicidal Activity CORN (crop damage) ([20]; 63 g ai/ha): 100
Pre-emerge Herbicidal Activity CORN (crop damage) ([20]; 250 g ai/ha): 100
Pre-emerge Herbicidal Activity ECHCG ([21]; 63 g ai/ha): 100
Pre-emerge Herbicidal Activity ECHCG ([21]; 250 g ai/ha): 100
Pre-emerge Herbicidal Activity RICE (crop damage) ([22]; 63 g ai/ha): 99
Pre-emerge Herbicidal Activity RICE (crop damage) ([22]; 250 g ai/ha): 100
Post-emerge Herbicidal Activity AMBEL ([23]; 63 g ai/ha): 100
Post-emerge Herbicidal Activity AMBEL ([23]; 250 g ai/ha): 100
Pre-emerge Herbicidal Activity SOY (crop damage) ([24]; 63 g ai/ha): 100
Pre-emerge Herbicidal Activity SOY (crop damage) ([24]; 250 g ai/ha): 100
Pre-emerge Herbicidal Activity IPOHE ([25]; 63 g ai/ha): 100
Pre-emerge Herbicidal Activity IPOHE ([25]; 250 g ai/ha): 100
Pre-emerge Herbicidal Activity ABUTH ([26]; 63 g ai/ha): 100
Pre-emerge Herbicidal Activity ABUTH ([26]; 250 g ai/ha): 100
